Measurements taken from patent US20240400606A1, “SMALL MOLECULE ACTIVATORS OF THE IMMUNE SYSTEM” (THE BOARD OF TRUSTEES OF THE UNIVERSITY OF ILLINOIS, priority 2021, published 2024).
Entries after “also recorded” stand apart in the source; their conditions may differ.

Legend:
IMPAD1 = IMPAD1 (Homo sapiens (Human), UniProt Q9NX62); assay: IMPAD1 in vitro activity assay; format: biochemical
Method: IMPAD1 Assay. Working stock solutions of IMPAD1 (0.1 mg/mL in 1× activity assay buffer), adenosine 3′,5′-diphosphate (PAP; dissolved first in DMSO to make stock solution then diluted to 200 μM in 1× assay buffer), and compound of interest in DMSO were prepared. Two technical replicates were assayed for each sample. Reaction mixes were prepared by mixing 6 μL IMPAD1 stock solution, 2.4 μL compound of interest stock or DMSO, 21.6 μL 1× assay buffer to make 30 μL reaction mix. Amount of reaction mix was scaled accordingly to number of samples assayed. 15 μL of reaction mix was dispensed to each well (384-well plate). 15 μL 200 μM PAP stock solution was added to each well. The reaction was incubated at 37° C. for 45 minutes, then quenched by addition of 15 μL of malachite green solution A, followed by addition of 15 μL of malachite green solution B. The plate was left at room temperature for 20 minutes for color stabilization, then absorbance was read at 620 nm. Phosphate standard curve generation was identical to that described under “Optimized Coupled Chromogenic SULT2B1b Activity Assay”, 384-well format. […]
Percent inhibition was calculated as: 100−[100×[(Phosphate produced per wellaverage, compound of interest−Phosphate produced per wellaverage, PAP)/(Phosphate produced per wellaverage, IMPAD1−Phosphate produced per wellaverage, PAP)]].

SULT2B1b = SULT2B1b (Homo sapiens (Human), UniProt O00204); assay: Compound aggregation assay (LC-MS/MS assay with BSA decoy protein); format: biochemical; settings: decoy protein BSA 0.1 mg/mL, dose response; listed as IB:10:D
Method: Compound Aggregation Assay. Stock solutions of DHEA (5 mM in DMSO) and compound of interest (5 mM in DMSO) were prepared. For each 60 μL reaction, to a 1.5 mL Eppendorf tube was added 26.7 μL 1× assay buffer supplemented with 0.2 mg/mL bovine serum albumin (BSA) and 1.2 μL compound of interest or DMSO. BSA-containing 1× assay buffer and compound of interest were incubated at room temperature for 5 minutes before addition of 1.2 μL of 5 mM DHEA, and 0.9 μL 6.6 mM PAPS. SULT2B1b was diluted to 1.5 μg/μL in protein storage buffer then down to 0.8 μg/μL in 1× activity assay buffer. 30 μL of 0.8 μg/μL SULT2B1b was added to each reaction. Reactions were incubated for 2 hours at 37° C. with shaking at 250 rpm. To quench, 30 μL reaction mix was added to 30 μL ice cold 0.5% HCl in MeCN, then centrifuged at 13,000 xg at room temperature for 3 min. 50 μL supernatant was transferred to an empty Eppendorf tube and submitted for LC-MS/MS quantification (UIUC Metabolomics Center). For samples run without BSA, an identical protocol was followed using 26.7 μL 1× assay buffer that had not been supplemented with BSA. Controls: Reaction mix made with DHEA, DMSO in place of compound of interest (DHEA control).
Percent inhibition was calculated as: 100−[100×(DHEA-sulfate producedcompound of interest/DHEA sulfate producedDHEA)].

[1] = system: free cholesterol levels in MCF-7; assay: Whole cell cholesterol assay; format: cell-based, human; settings: MCF-7, 6.25 μM, 72 hours
Method: Whole Cell Cholesterol Assay. Assay was run according to manufacturer's instructions. Briefly, 5000 MCF-7 cells were plated in 99 μL media in a 96-well plate and allowed to adhere overnight before DMSO solutions of compounds were added to each well. Final concentration of DMSO in each well is 1%, final volume: 100 μL. At the end of 72 hours, media was aspirated, and cells were washed twice with 100 μL PBS. 50 μL of cholesterol lysis solution was added and cells were incubated for 30 minutes at 37° C. 50 μL of sample was then transferred to a 96-well white walled assay plate. 50 μL of cholesterol detection reagent was added to all wells and incubated at room temperature for 1 hour. Luminescence was read using a SpectraMax M3 plate reader (Molecular Devices). Cholesterol levels were determined by use of a cholesterol standard curve.

[2] = system: whole cell CS levels in T47D; assay: Whole cell cholesterol sulfate quantification, T47D; format: cell-based; settings: 6.25 μM, 72 hours
Method: General Whole Cell Cholesterol Sulfate Quantification. 60×15 mm tissue culture dishes were seeded with MCF-7 at 2×10^6 cells/dish or T47D at 1×10^6 cells per dish, 5 mL total media volume, and allowed to adhere overnight. Compounds of interest were dissolved in DMSO. Cells were treated with 25 μL 1.25 mM compound of interest stock (6.25 μM final compound concentration, 0.5% final DMSO concentration) or DMSO for 72 hours. To harvest, media was aspirated, and cells were washed once with PBS before detaching with trypsin. Trypsin was quenched with media. Cells were centrifuged at 300 xg for 3 minutes and supernatant was discarded. Cells were resuspended in media and counted using a Countess 3 automated cell counter (Thermo Fisher Scientific). 1.5×10^6 cells were collected, washed twice with 1 mL PBS, then pelleted and stored at −80° C. until lysis. […] 100 μL of supernatant was transferred to an empty Eppendorf tube and submitted for LC-MS/MS quantification (UIUC Metabolomics Center), along with 5 mM cholesterol sulfate sodium salt standard.
General LC-MS/MS Quantification Method. Both DHEAS and CS samples were analyzed by 6500 QTRAP (Sciex, Redwood City, CA) liquid chromatography-tandem mass spectrometry. […] Cholesterol-sulfate and DHEA-sulfate were detected by multiple reaction monitoring (MRM) at m/z 465→97.0 and 367.0→97.0 respectively. […]

Sequence of SULT2B1b (O00204 whole entry): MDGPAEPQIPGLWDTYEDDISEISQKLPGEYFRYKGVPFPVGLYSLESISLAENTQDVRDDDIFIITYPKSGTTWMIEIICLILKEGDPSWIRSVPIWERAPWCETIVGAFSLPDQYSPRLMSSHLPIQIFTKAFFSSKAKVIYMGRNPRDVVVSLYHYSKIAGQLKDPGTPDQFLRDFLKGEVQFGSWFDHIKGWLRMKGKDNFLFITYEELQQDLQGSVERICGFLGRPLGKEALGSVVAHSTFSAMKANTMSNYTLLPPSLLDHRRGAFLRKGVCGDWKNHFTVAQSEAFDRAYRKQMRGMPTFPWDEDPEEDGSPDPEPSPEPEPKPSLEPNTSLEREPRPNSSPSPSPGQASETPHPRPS
Sequence of IMPAD1 (Q9NX62 whole entry): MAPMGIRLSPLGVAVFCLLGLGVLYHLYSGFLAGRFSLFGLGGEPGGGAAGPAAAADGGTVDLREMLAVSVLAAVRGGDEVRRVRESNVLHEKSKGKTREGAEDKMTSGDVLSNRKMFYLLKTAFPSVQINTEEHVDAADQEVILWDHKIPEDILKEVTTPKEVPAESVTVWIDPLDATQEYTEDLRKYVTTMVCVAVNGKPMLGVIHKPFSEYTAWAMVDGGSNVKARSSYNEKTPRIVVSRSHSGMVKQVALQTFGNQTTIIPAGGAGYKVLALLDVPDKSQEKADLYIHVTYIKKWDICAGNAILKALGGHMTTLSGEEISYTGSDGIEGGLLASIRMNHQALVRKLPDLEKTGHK

Structure (SMILES)	inhibition of IMPAD1 (IMPAD1)	shift in SULT2B1b inhibition in the presence of BSA (SULT2B1b)	free cholesterol levels vs DMSO [1]	whole cell CS levels vs DMSO [2]
C[C@]12CCC(=O)N(Cc3ccc(Cl)cc3)C1=CC[C@@H]1[C@@H]2C(=O)C[C@]2(C)C(=O)CC[C@@H]12 [Compound 1, (4aR,4bS,6aS,9aS,9bS)-1-(4-chlorobenzyl)-4a,6a-dimethyl-3,4,4a,6,6a,8,9,9a,9b,10-decahydro-1H-indeno[5,4-f]quinoline-2,5,7(4bH)-trione]	does not inhibit	minimal shift; also recorded: no change	–	–
C[C@]12CCC(=O)N(Cc3ccc(Br)cc3)C1=CC[C@@H]1[C@@H]2C(=O)C[C@]2(C)C(=O)CC[C@@H]12 [Compound 3, (4aR,4bS,6aS,9aS,9bS)-1-(4-bromobenzyl)-4a,6a-dimethyl-3,4,4a,6,6a,8,9,9a,9b,10-decahydro-1H-indeno[5,4-f]quinoline-2,5,7(4bH)-trione]	–	–	no statistical difference	confirmed
